According to PubChem BioAssay (NCI):
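Cultured in 96-well plates, cells were exposed to test compound for 48 hours across five concentrations. At the TGI there is no net growth.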

Legend:
Assay in all cases: NCI-60 cell line screen, 48 h
[1] = test system: LOX IMVI melanoma
[2] = test system: OVCAR-5 ovarian
[3] = test system: HT29 colon
[4] = test system: IGROV1 ovarian
[5] = test system: HCT-116 colon
[6] = test system: HL-60(TB) leukemia
[7] = test system: RPMI-8226 leukemia
[8] = test system: TK-10 renal
[9] = test system: NCI-H522 lung
[10] = test system: SF-539 CNS
[11] = test system: SF-295 CNS
[12] = test system: ACHN renal
[13] = test system: SK-OV-3 ovarian
[14] = test system: SK-MEL-28 melanoma
[15] = test system: SW-620 colon
[16] = test system: MOLT-4 leukemia
[17] = test system: UACC-62 melanoma
[18] = test system: SNB-75 CNS
[19] = test system: SNB-78 CNS
[20] = test system: EKVX NSCLC
[21] = test system: RXF-631 renal
[22] = test system: OVCAR-4 ovarian
[23] = test system: DLD-1 colon
[24] = test system: OVCAR-3 ovarian
[25] = test system: A498 renal
[26] = test system: SF-268 CNS
[27] = test system: SN12C renal
[28] = test system: NCI-H226 lung
[29] = test system: HOP-18 NSCLC
[30] = test system: M14 melanoma
[31] = test system: UO-31 renal
[32] = test system: CAKI-1 renal
[33] = test system: SK-MEL-5 melanoma
[34] = test system: HOP-92 NSCLC
[35] = test system: MALME-3M melanoma
[36] = test system: 786-0 renal
[37] = test system: U251 CNS
[38] = test system: NCI-H23 lung
[39] = test system: KM20L2 colon
[40] = test system: SK-MEL-2 melanoma
[41] = test system: COLO 205 colon
[42] = test system: M19-MEL melanoma
[43] = test system: NCI-H460 lung
[44] = test system: HOP-62 NSCLC
[45] = test system: DMS 273 small cell lung
[46] = test system: HCC-2998 colon
[47] = test system: A549 NSCLC
[48] = test system: UACC-257 melanoma
[49] = test system: HCT-15 colon
[50] = test system: LXFL 529 NSCLC
[51] = test system: RXF 393 renal
[52] = test system: OVCAR-8 ovarian
[53] = test system: SNB-19 CNS
[54] = test system: K-562 leukemia
[55] = test system: CCRF-CEM leukemia
[56] = test system: KM12 colon
[57] = test system: DMS 114 small cell lung
[58] = test system: XF 498 CNS

Measured: TGI

c1ccc(-c2[o+]c(-c3ccccc3)c(-c3ccccc3)c(-c3ccccc3)c2-c2ccccc2)cc1
> 100 µM: [1] | [2] | [3] | [4] | [5] | [6] | [7] | [8] | [9] | [10] | [11] | [12] | [13] | [14] | [15] | [16] | [17] | [18] | [19] | [20] | [21] | [22] | [23] | [24] | [25] | [26] | [27] | [28] | [29] | [30] | [31] | [32] | [33] | [34] | [35] | [36] | [37] | [38] | [39] | [40] | [41] | [42] | [43] | [44] | [45] | [46] | [47] | [48] | [49] | [50] | [51] | [52]

CCOP(=O)(OCC)C1CC(C)OC1=O (stereo unspecified)
> 100 µM: [1] | [2] | [3] | [53] | [4] | [5] | [6] | [7] | [8] | [10] | [11] | [12] | [13] | [14] | [15] | [54] | [16] | [17] | [18] | [19] | [20] | [21] | [22] | [55] | [23] | [24] | [25] | [26] | [56] | [27] | [57] | [30] | [31] | [32] | [33] | [35] | [36] | [37] | [38] | [39] | [40] | [41] | [42] | [58] | [43] | [44] | [45] | [46] | [47] | [48] | [49] | [50] | [51] | [52]
